The values below come from patent publication US10947213B1 (Merck Patent GmbH, priority 2015, dated 2021).

The experiment has as its target T1, TLR7/NFKb HEK cells (Homo sapiens, UniProt Q9NYK1).
T1 construct: expressed in transfected cells; host or cells: HEK cells (TLR7/NFKb reporter line)
T1 sequence (Q9NYK1 27-1049): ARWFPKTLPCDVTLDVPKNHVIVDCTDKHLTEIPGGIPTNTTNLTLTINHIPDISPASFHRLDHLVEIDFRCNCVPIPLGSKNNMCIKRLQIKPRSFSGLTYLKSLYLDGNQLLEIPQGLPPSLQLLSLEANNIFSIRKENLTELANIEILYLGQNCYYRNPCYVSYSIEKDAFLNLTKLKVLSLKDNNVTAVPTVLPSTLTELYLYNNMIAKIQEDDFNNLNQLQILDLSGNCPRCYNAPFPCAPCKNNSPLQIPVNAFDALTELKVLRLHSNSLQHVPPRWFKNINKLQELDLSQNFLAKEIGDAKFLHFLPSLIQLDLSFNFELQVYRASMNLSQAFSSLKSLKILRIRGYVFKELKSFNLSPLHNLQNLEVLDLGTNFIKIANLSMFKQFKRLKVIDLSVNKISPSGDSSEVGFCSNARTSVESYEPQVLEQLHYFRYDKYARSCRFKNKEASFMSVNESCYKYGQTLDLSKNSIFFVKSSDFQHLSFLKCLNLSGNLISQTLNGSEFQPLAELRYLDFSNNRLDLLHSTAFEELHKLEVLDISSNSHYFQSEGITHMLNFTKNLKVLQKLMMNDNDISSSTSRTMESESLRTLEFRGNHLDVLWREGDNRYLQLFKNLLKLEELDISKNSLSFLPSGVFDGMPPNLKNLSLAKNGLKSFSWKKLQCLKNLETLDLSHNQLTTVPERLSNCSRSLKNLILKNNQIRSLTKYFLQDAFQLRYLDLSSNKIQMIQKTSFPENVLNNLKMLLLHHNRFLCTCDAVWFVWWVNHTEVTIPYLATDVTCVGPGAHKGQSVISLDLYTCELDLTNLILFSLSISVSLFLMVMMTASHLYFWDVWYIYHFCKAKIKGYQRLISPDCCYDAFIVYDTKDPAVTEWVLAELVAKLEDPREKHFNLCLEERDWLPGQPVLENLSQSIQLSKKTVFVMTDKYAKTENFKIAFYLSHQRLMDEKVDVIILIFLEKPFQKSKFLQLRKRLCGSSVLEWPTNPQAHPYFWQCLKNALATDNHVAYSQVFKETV
Nature of the experiment: HEK Cell Assay (TLR7/NFKb reporter, Steady-Glo luciferase readout). In kind it is cell-based. Conditions: 30 min compound preincubation, then R*48 agonist for 5 hours, read-out: Potency. A digest of the protocol:
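Steady-Glo luminescence after 5 h stimulation with R*48 agonist, following 30 min compound preincubation. Assay run in HEK cells carrying a TLR7/NFKb luciferase reporter, plated at 5000 cells/well and grown 24 h at 37° C (10% CO2) before treatment.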

Counter-ions that a name gives are not always drawn.

As to `CN1CCC(NC(=O)C2CN(c3ccc(C#N)c4ncccc34)CC(F)(F)C2)CC1` (centres unmarked) [Compound 530, 1-(8-Cyano-quinolin-5-yl)-5,5-difluoro-piperidine-3-carboxylic acid (1-methyl-piperidin-4-yl)-amide], the IC50 was under 1000 nM. Regarding `CC1CC(C(=O)NC2CCCN(C)C2)CN(c2ccc(C#N)c3nccnc23)C1` (stereo not drawn) [Compound 543, cis-1-(8-cyanoquinoxalin-5-yl)-5-methyl-N-(1-methyl-3-piperidyl) piperidine-3-carboxamide], the IC50 is under 1000 nM. Next, `CN1CCC(CC(=O)NC2CN(c3ccc(C#N)c4nccnc34)CC(F)(F)C2)CC1` (single isomer, unassigned) [Compound 522]: under 1000 nM. Regarding `CN[C@@H]1C[C@H](C)CN(c2ccc(C#N)c3nccnc23)C1` [Compound 16, 8-((3S,5R)-3-methyl-5-(methylamino)piperidin-1-yl)quinoxaline-5-carbonitrile hydrochloride], the IC50 is under 1000 nM. As to `CC(C(=O)N[C@@H]1C[C@H](C)CN(c2ccc(C(F)F)c3ncccc23)C1)N1CCC(O)CC1` (stereo partly drawn) [Compound 313, N-[(3R,5S)-1-[8-(difluoromethyl)quinolin-5-yl]-5-methylpiperidin-3-yl]-2-(4-hydroxypiperidin-1-yl)propanamide], the IC50 was under 1000 nM. Next, `C[C@H]1C[C@@H](NCC(N)=O)CN(c2ccnc3nccnc23)C1` [Compound 121, 2-[[(3R,5S)-5-methyl-1-[pyrido[2,3-b]pyrazin-8-yl]piperidin-3-yl]amino]acetamide]: over 10000 nM; `C[C@H]1C[C@@H](NC(=O)C(N)C(F)(F)F)CN(c2ccc(C(N)=O)c3ncccc23)C1` (single isomer, unassigned) [Compound 185]: over 10000 nM.

In the case of `C[C@@H]1CN(c2ccnc3nccnc23)C[C@H](C(=O)N[C@@H]2CCCNC2)O1` [Compound 64, (2R,6R)-6-methyl-N—((R)-piperidin-3-yl)-4-(pyrido[2,3-b]pyrazin-8-yl)morpholine-2-carboxamide], the IC50 lay in the range of 1000 to 10000 nM.

Turning to `C[C@H]1C[C@@H](N)CN(c2ccc(C(F)(F)F)c3nccnc23)C1` [Compound 77, (3R,5S)-5-methyl-1-[8-(trifluoromethyl)quinoxalin-5-yl]piperidin-3-amine], the IC50 was under 1000 nM. On to `CNC(=O)CN[C@@H]1C[C@H](C)CN(c2ccc(C(F)(F)F)c3ncccc23)C1` [Compound 569], for which the IC50 was under 1000 nM. The value for `C[C@H]1C[C@@H](NC(=O)CC2CN(C)C2)CN(c2ccc(C#N)c3nccnc23)C1` [Compound 359, N-[(3R,5S)-1-(8-cyanoquinoxalin-5-yl)-5-methylpiperidin-3-yl]-2-(1-methylazetidin-3-yl)acetamide] was under 1000 nM; that for `CCN(CC)CC(=O)NCC1CCN(c2ccc(C(F)(F)F)c3ncccc23)CC1` [Compound 443, 2-Diethylamino-N-[1-(8-trifluoromethyl-quinolin-5-yl)-piperidin-4-ylmethyl]-acetamide] was under 1000 nM. The value for `Cc1ncc(N2C[C@@H](C)C[C@@H](NC(=O)[C@H](N)C3CC3)C2)c2cccnc12` [Compound 561, (R)-2-Amino-2-cyclopropyl-N-[(3R,5S)-5-methyl-1-(8-methyl-[1,7]naphthyridin-5-yl)-piperidin-3-yl]-acetamide] was under 1000 nM. Consider `N#Cc1ccc(N2C[C@@H](NC(=O)CCC(=O)N3CCC3)C[C@@H](C(F)(F)F)C2)c2cccnc12` (racemic) [Compound 482], for which the IC50 was 1000 to 10000 nM. For the compound `CNC(=O)CCC(=O)NC1CC(C(F)(F)F)CN(c2ccc(C#N)c3ncccc23)C1` (racemic) [Compound 492, cis-(N-1-(8-Cyano-quinolin-5-yl)-5-trifluoromethyl-piperidin-3-yl]-N′-methyl-succinamide)], the IC50 was 1000 to 10000 nM. Consider `CCN(CC)C1CCN(CC2CCN(c3ccnc4ccccc34)CC2)CC1` [Compound 5, N,N-diethyl-1-((1-(quinolin-4-yl)piperidin-4-yl)methyl)piperidin-4-amine], for which the IC50 lay within 1000 to 10000 nM. With `Cc1ncc(N2C[C@@H](C)C[C@@H](NC(=O)CCC(=O)N3CCC3)C2)c2cccnc12` [Compound 566, 4-Azetidin-1-yl-N-[(3R,5S)-5-methyl-1-(8-methyl-[1,7]naphthyridin-5-yl)-piperidin-3-yl]-4-oxo-butyramide], the IC50 is 1000 to 10000 nM. The value for `C[C@H]1C[C@@H](NC(=O)COC(C)(C)C)CN(c2ccc(C#N)c3nccnc23)C1` [Compound 163, 2-(tert-butoxy)-N-[(3R,5S)-1-(8-cyanoquinoxalin-5-yl)-5-methylpiperidin-3-yl]acetamide] was under 1000 nM; that for `N#Cc1ccc(N2CC(NC(=O)CCC(=O)N3CCC3)CC(C(F)(F)F)C2)c2cccnc12` (single isomer, unassigned) [Compound 494] was over 10000 nM; that for `CCN(CC)CCNCC1CCN(c2ccnc3cc(F)ccc23)CC1` [Compound 383, N,N-Diethyl-N′-[1-(7-fluoro-quinolin-4-yl)-piperidin-4-ylmethyl]-ethane-1,2-diamine] was 1000 to 10000 nM. `C[C@H]1C[C@@H](NC(=O)CN2CCC(F)(F)CC2)CN(c2ccc(C(F)(F)F)c3ncccc23)C1` [Compound 350, 2-(4,4-difluoropiperidin-1-yl)-N-[(3R,5S)-5-methyl-1-[8-(trifluoromethyl)quinolin-5-yl]piperidin-3-yl]acetamide]: the IC50 is under 1000 nM. As for `Cc1cnc2c(N3C[C@@H](C)C[C@@H](N)C3)ccc(C#N)c2n1` [Compound 525, 8-((3R,5S)-3-Amino-5-methyl-piperidin-1-yl)-3-methyl-quinoxaline-5-carbonitrile], the IC50 was under 1000 nM. Consider `C[C@H]1C[C@@H](NC(=O)CN2CCN(C)CC2)CN(c2ccc(C(F)(F)F)c3nccnc23)C1` [Compound 259, N-[(3R,5S)-5-methyl-1-[8-(trifluoromethyl)quinoxalin-5-yl]piperidin-3-yl]-2-(4-methylpiperazin-1-yl)acetamide], for which the IC50 was under 1000 nM. Take `N#Cc1ccc(N2CC(NC(=O)CC3(O)CCCCC3)CC(C(F)(F)F)C2)c2cccnc12` (racemic) [Compound 491]: the IC50 was under 1000 nM. The value for `C[C@H]1C[C@@H](NC(=O)[C@@H](N)Cc2cccnc2)CN(c2ccnc3nccnc23)C1` [Compound 118, (2S)-2-amino-N-[(3R,5S)-5-methyl-1-[pyrido[2,3-b]pyrazin-8-yl]piperidin-3-yl]-3-(pyridin-3-yl)propanamide] was 1000 to 10000 nM. Turning to `COCCN[C@@H]1C[C@H](C2CC2)CN(c2ccc(C#N)c3nccnc23)C1` (relative stereo) [Compound 176, cis-8-[3-cyclopropyl-5-[(2-methoxyethyl)amino]piperidin-1-yl]quinoxaline-5-carbonitrile], the IC50 lay within 1000 to 10000 nM. Consider `C[C@@H]1CN(c2ccnc3nccnc23)C[C@H](CN2CCN(C)CC2)O1` [Compound 47, (2R,6S)-2-methyl-6-((4-methylpiperazin-1-yl)methyl)-4-(pyrido[2,3-b]pyrazin-8-yl)morpholine], for which the IC50 was 1000 to 10000 nM. Next, `C[C@H]1C[C@@H](NC(=O)CN2CC(N)C2)CN(c2ccc(C(F)(F)F)c3nccnc23)C1` [Compound 361, 2-(3-aminoazetidin-1-yl)-N-((3R,5S)-5-methyl-1-(8-(trifluoromethyl)quinoxalin-5-yl)piperidin-3-yl)acetamide]: under 1000 nM; `O=C(CN1CCCCC1)NCC1CCN(c2ccnc3ccccc23)CC1` [Compound 8, 2-(Piperidin-1-yl)-N-((1-(quinolin-4-yl)piperidin-4-yl)methyl)acetamide]: 1000 to 10000 nM. As to `CC(C)[C@H](O)C(=O)N[C@@H]1C[C@H](C)CN(c2ccc(C(N)=O)c3ncccc23)C1` [Compound 181, 5-[(3R,5S)-3-[(2S)-2-hydroxy-3-methylbutanamido]-5-methylpiperidin-1-yl]quinoline-8-carboxamide], the IC50 was over 10000 nM. Turning to `CCN(C)CC(=O)NCC1CCN(c2ccnc3nccnc23)CC1` [Compound 408, 2-(Ethyl-methyl-amino)-N-(1-pyrido[2,3-b]pyrazin-8-yl-piperidin-4-ylmethyl)-acetamide], the IC50 is 1000 to 10000 nM. In the case of `COCCN[C@H]1C[C@@H](C(F)(F)F)CN(c2ccc(C#N)c3nccnc23)C1` (relative stereo) [Compound 221, cis-8-[3-[(2-methoxyethyl)amino]-5-(trifluoromethyl)piperidin-1-yl]quinoxaline-5-carbonitrile], the IC50 is 1000 to 10000 nM.
